Three compounds from US20260055061A1, “HALOPHTHALIMIDE COMPOUNDS AND METHODS OF USE AGAINST TBI, INFLAMMATORY DISORDER, AUTOIMMUNE DISORDER, NEURODEGENERATIVE DISEASE OR VIRAL INFECTION” (The United States of America, as represented by the …, priority 2022, published 2026) can be followed below.

Test [1] relates to TNF-α. Put plainly: LPS-induced TNF-α production in RAW 264.7 cells (ELISA). The format is cell-based, mouse. The settings on record: for TNF-α level / TNF-α % Δ: 1 μM, LPS-challenged RAW 264.7 cells; for TNF-α % Δ: percentage of vehicle control value (control = 100%), mean ± S.E.M., n = 3; for LPS-induced TNF-α in cell culture media (in words): 100-1000 nM; for concentration from which TNF-α was significantly reduced: 100-1000 nM tested, vs LPS+Vehicle. Summed up:
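Sandwich ELISA of TNF-α secreted into the media of RAW 264.7 cultures, with a biotinylated detection antibody, avidin-HRP and TMB substrate. Absorbance read at 450 nm with 570 nm background subtraction. Levels interpolated from a TNF-α protein standard curve.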
Background: ELISA stands for enzyme-linked immunosorbent assay.

For another test, the system named is IFN-γ. Put plainly: LPS model of inflammation in rats: IFN-γ in plasma and cortex. The test is classed as in vivo, rat. The conditions noted are these: LPS-challenged rats; for IFN-γ in plasma (in words): low and high dose.
For test [2], the system named is LPS-induced nitrite in RAW 264.7 cells. Briefly: LPS-induced nitrite production in RAW 264.7 cells (Griess reagent / fluorometric kit). The format is cell-based, mouse. The conditions noted are these: for nitrite levels / nitrite level, % of vehicle control / nitrite inhibitory activity (comparison in words): 1 μM; for nitrite levels / nitrite level, % of vehicle control: LPS-challenged RAW 264.7 cells; for nitrite level, % of vehicle control: percentage of vehicle control value (control = 100%), mean ± S.E.M., n = 3; for nitrite inhibitory activity (comparison in words): tetrafluoro vs corresponding difluoro or stereoisomer; for LPS-induced nitrite in cell culture media (in words): 100-1000 nM; for concentration from which nitrite levels were significantly reduced: 100-1000 nM tested, vs LPS+Vehicle. Summed up:
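Nitrite in culture media of LPS-challenged RAW 264.7 cells measured as a stable surrogate for NO, using Griess reagent (sulfanilamide, then N-1-naphthylethylenediamine, 10 min each in the dark). Absorbance at 550 nm, with levels read against a nitrite standard curve ([…]) made in matching medium.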

The test system of test [3] is TNF-α. Briefly: LPS model of inflammation in rats: TNF-α in plasma and brain. The test is classed as in vivo, rat. The conditions noted are these: for TNF-α plasma levels (in words): both doses (TFBP 16.25/32.5, TFNBP 14.33/28.66 mg/kg i.p.), 4 hr post LPS. As to the method: LPS model of inflammation in rats: Male Fischer 344 rats (Charles River Laboratories, Wilmington, MA, USA) (approx. 150 g weight) were randomly assigned across groups, and thereafter administered either vehicle (Veh), or TFBP or TFNBP. Two doses of TFBPs were evaluated: (TFBP: 16.25 mg/kg or 32.5 mg/kg, and for TFNBP: 14.33 mg/kg or 28.66 mg/kg), i.p. These compounds were suspended in 1% carboxymethyl cellulose (CMC) in saline (0.9%), and administered 60 min prior to either administration of LPS (1 mg/kg, Sigma, St Louis, MO, E. coli O55:B5 in saline (0.9%), 0.1 ml/kg i.p.) or of Vehicle (CMC in saline (0.9%) 0.1 ml/kg, i.p.). […] At 4 hr following LPS or Veh, animals were euthanized, and plasma and brain (hippocampus) tissue samples were collected and stored at −80° C. Brain samples were later sonicated in a Tris-based lysis buffer (Mesoscale Discovery, Gaithersburg, MD, USA) with protease/phosphatase inhibitors (Halt™ Protease and Phosphatase Inhibitor Cocktail, ThermoFisher Scientific, Asheville, NC, USA, diluted to 3×). Next, brain samples were centrifuged (10,000 g, 10 min, 4° C.), and protein concentrations were determined by Bicinchoninic acid assay (BCA, ThermoFisher Scientific, Asheville, NC, USA). An ELISA for TNF-α, IL-6, IL-1B, IL-10 and IL-13 was later performed following the manufacturer's protocol (Mesoscale Discovery).
Four hours after LPS injection, animals were euthanized, and blood and brain tissue were collected and placed on wet ice. Plasma was quickly separated from blood by centrifuge at 10,000 g. 5 min, 4° C., and brain regions of cortex, hippocampus and the rest of brain were dissected into separate vials on wet ice, then stored at −80° C. Brain tissues were then sonicated in a TRIS based lysis buffer (Mesoscale Discovery) with 3× protease/phosphatase inhibitors (Halt™ Protease and Phosphatase Inhibitor Cocktail, Thermo Fisher Scientific), were then centrifuged at 10,000 g, 10 min, 4° C., and protein concentrations were measured by Bicinchoninic acid assay (BCA, Thermo Fisher Scientific). Rat plasma, cerebral cortical and hippocampal samples were then analyzed by multi-proinflammatory cytokines ELISA (V-PLEX Proinflammatory Panel 2 Rat Kit, Mesoscale Discovery), following the manufacturer's protocol. The processes and dosages of the experiment of drug treatment effects on LPS rat model was made on the basis of our previous studies.

[4] abbreviates: high dose (TFBP 32.5, TFNBP 28.66 mg/kg i.p.).
Where [5] appears, read: low dose (TFBP 16.25, TFNBP 14.33 mg/kg i.p.).

“Also recorded” adds a separate entry of the source. Bounds are passed on as bounds.

Consider `O=C1c2c(F)c(F)c(F)c(F)c2C(=O)N1C1CC2CCC1C2` (stereo not drawn) [Compound 16, 2-Endo-(bicyclo[2.2.1]heptan-2-yl)-4,5,6,7-tetrafluoroisoindoline-1,3-dione], for which, in the test on TNF-α [1], the TNF-α level is listed as 55-74%; the “TNF-α % Δ” value amounted to 74 ± 3%; the “LPS-induced TNF-α in cell culture media (in words)” value is “significantly decreased; also recorded: effective in decreasing levels of nitrite and TNF-α”; the “concentration from which TNF-α was significantly reduced” value is on record as not below 300 nM. Also, in the test on IFN-γ, the “Brain cortex IFN-γ levels (in words)” value is “not impacted” and the “IFN-γ in plasma (in words)” value is reported as “proved able to reduce this rise”. Further, in test [2], the nitrite levels was 25-36%; the “nitrite level, % of vehicle control” value stood at 36 ± 4%; the “nitrite inhibitory activity (comparison in words)” value is on record as “more potent nitrite inhibitory activity”; the “LPS-induced nitrite in cell culture media (in words)” value was “significantly decreased; also recorded: effective in decreasing levels of nitrite and TNF-α”. Further, the “concentration from which nitrite levels were significantly reduced” value in test [2] is given as not below 300 nM. The “TNF-α plasma levels (in words)” value in the test with TNF-α [3] is “reduced this increase”. The “Cerebral cortex TNF-α, change vs. LPS group” value with TNF-α [3] (setting [4]) is reported as −41.7%. In addition, the “Cerebral cortex TNF-α, change vs. LPS group” value with TNF-α [3] (setting [5]) was “only effectively did so at the higher tested dose”.

Take `Nc1ccc(F)c2c1C(=S)N(C1CCC(=S)NC1=O)C2=O` (centres unmarked) [Compound 30, 4-amino-7-fluoro-2-(2-oxo-6-thioxopiperidin-3-yl)-3-thioxoisoindolin-1-one]: in the test on TNF-α [1] (0.6-60 μM, LPS 60 ng/mL, 24 h), the “LPS-induced elevation in TNF-α levels (in words)” value is “significantly lowered”. In addition, the “Nitrite, % Change versus Control (± s.e.m.)” value in test [2] (10 uM, LPS-activated RAW 264.7 cells) amounted to 35.3 ± 3.0%. In addition, the “drop in LPS-induced nitrite production” value in test [2] (10 μM, stimulated RAW cells) stood at 65%. The “LPS-induced elevation in nitrite levels (in words)” value in test [2] (0.6-60 μM, LPS 60 ng/mL, 24 h) is given as “significantly lowered”. Further, in test [2] (six-compound pomalidomide grouping, RAW cell assay, FIGS. 12-13), the “nitrite levels (in words)” value is listed as “superior”. Moreover, in the test on TNF-α [3] (29.57 mg/kg i.p., LPS rat model), the “TNF-α in plasma and brain” value is recorded as “significantly reduce”.

On to `CC1(C)[C@@H]2CC[C@@]1(C)[C@@H](N1C(=O)c3c(F)c(F)c(F)c(F)c3C1=O)C2` [Compound 14, 4,5,6,7-Tetrafluoro-2-((1R,2S,4R)-1,7,7-trimethylbicyclo[2.2.1]heptan-2-yl) isoindoline-1,3-dione], for which, in the test with TNF-α [1], the TNF-α level is 55-74%, the “TNF-α % Δ” value is 55 ± 1%, the “LPS-induced TNF-α in cell culture media (in words)” value was “significantly decreased” and the “concentration from which TNF-α was significantly reduced” value is given as not below 600 nM. Also, in the test with IFN-γ, the “Brain cortex IFN-γ levels (in words)” value is reported as “not impacted” and the “IFN-γ in plasma (in words)” value is “proved able to reduce this rise”. Also, in test [2], the nitrite levels is listed as 25-36%; the “nitrite level, % of vehicle control” value is listed as 26 ± 3%; the “nitrite inhibitory activity (comparison in words)” value was “more potent nitrite inhibitory activity”; the “LPS-induced nitrite in cell culture media (in words)” value is reported as “significantly decreased”. In addition, the “concentration from which nitrite levels were significantly reduced” value in test [2] was not below 100 nM. Also, in the test on TNF-α [3], the “TNF-α plasma levels (in words)” value is recorded as “reduced this increase”. The “Cerebral cortex TNF-α, change vs. LPS group” value with TNF-α [3] (setting [4]) was −58.3%. Moreover, the “TNF-α plasma levels, decline vs. LPS alone group” value with TNF-α [3] (higher dose (TFBP 32.5 mg/kg i.p.), 4 hr post LPS 1 mg/kg) is reported as −76%. Moreover, in the test on TNF-α [3] (setting [5]), the “Cerebral cortex TNF-α, change vs. LPS group” value was −41.7%.
